Results: ChEMBL document CHEMBL1150616, “Schizopeptin 791, a new anabeanopeptin-like cyclic peptide from the cyanobacterium Schizothrix sp” (J Nat Prod, 2002)
Converted amounts (≈) assume the structure as drawn. The source made the active and inactive calls. The calls are words filed in the database; no cut-off is given here.

What was measured:
[1] = Inhibition of trypsin
[2] = Inhibition of chymotrypsin at 45 ug/mL

- IC50 [1]: 45 µg/mL (≈ 56.8 µM)
- Activity [2]: inactive
SMILES: CC[C@H](C)[C@H](NC(=O)N[C@@H]1CCCCNC(=O)[C@H](Cc2ccccc2)NC(=O)[C@H](C)N(C)C(=O)[C@H](CCc2ccccc2)NC(=O)[C@H]([C@@H](C)CC)NC1=O)C(=O)O [Schizopeptin 791]
